Measured values taken from patent publication US10738057B2, “Tertiary alcohols as PI3K-γ inhibitors” (Incyte Corporation, priority 2017, dated 2020).
Counter-ions that a name gives are not always drawn. Like-named read-outs stand apart in the source and are kept apart here.

Columns and labels:
[1] = test system: Phosphorylated Ribosomal Protein S6 (RPS6) in THP-1 cells; test: THP-1 RPS6 ELISA assay; assay type: cell-based, Human; conditions: serum starved, 2 h compound, 10 nM MCP-1 for 15 min, phospho-RPS6 ELISA, read-out: PI3Kγ_THP1_RPS6_ELISA IC50
Method: Example A. THP-1 RPS6 ELISA Assay
To measure the Phosphorylated Ribosomal Protein S6 (RPS6) in cell lysates, THP-1 cells (Human Acute Monocytic Leukemia) are purchased from ATCC (Manassas, Va.) and maintained in RPMI with 10% FBS (Gibco/Life Technologies, Carlsbad, Calif.). For the assay, THP-1 cells are serum starved overnight in RPMI, then plated in RPMI (2×10^5 cells/well in 90 μL) into 96-well flat-bottom tissue culture treated plates (Corning, Corning, N.Y.), in the presence or absence of a concentration range of test compounds. Covered plates are incubated for 2 hours at 37° C., 5% CO2 then treated with or without 10 nM MCP-1 (MYBioSource, San Diego, Calif.) for 15 minutes at 37° C., 5% CO2. Plates are centrifuged at 1600 RPM and supernatants are removed. Cells are lysed in Lysis Buffer (Cell Signaling, Danvers, Mass.) with Protease Inhibitor (Calbiochem/EMD, Germany), PMSF (Sigma, St Louis Mo.), HALTS (Thermo Fisher, Rockford, Ill.) for 30 min on wet ice. Cell lysates are frozen at −80° C. before testing. The lysates are tested in the Human/Mouse/Rat Phospho-RPS6 ELISA (R&D Systems, Inc. Minn, Minn.). The plate is measured using a microplate reader (SpectraMax M5—Molecular Devices, LLC Sunnyvale, Calif.) set to 450 nm with a wavelength correction of 540. IC50 determination is performed by fitting the curve of inhibitor percent inhibition versus the log of the inhibitor concentration using the GraphPad Prism 5.0 software.

[2] = target: PI3Kγ (p110γ) Recombinant Human Protein (Homo sapiens (Human), UniProt P48736); test: PI3K-γ scintillation proximity assay; assay type: biochemical; conditions: 20 μM PIP2, 2 μM ATP, 13 nM PI3Kγ, 120 min, room temperature
Method in brief: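 Radiometric SPA in 20 mM MOPS pH 6.7, 10 mM MgCl2, 5 mM DTT, 0.03% CHAPS, 2% DMSO. Stopped with EDTA and WGA SPA beads for scintillation counting. IC50 fitted from % solvent-control activity versus log concentration.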

[3] = target: PI3Kδ (p110δ/p85α) Recombinant Human Protein (Homo sapiens (Human), UniProt O00329); test: PI3Kδ scintillation proximity assay; assay type: biochemical; conditions: 20 μM PIP2, 2 μM ATP, 3.4 nM PI3Kδ, 120 min, room temperature; read-out: PI3Kδ IC50
Method in brief: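 Recombinant human p110δ/p85α was run at room temperature in 20 mM MOPS pH 6.7, 10 mM MgCl2, 5 mM DTT, 0.03% CHAPS, 2% DMSO. Substrates were 20 µM PIP2 and 2 µM ATP with [γ-33P]ATP. Product was captured overnight on WGA SPA beads and counted by scintillation; IC50 fitted from percent of solvent control versus log concentration.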

[4] = Homo sapiens, THP-1, THP-1 cells

PI3Kδ (p110δ/p85α) Recombinant Human Protein, sequence (O00329 whole entry): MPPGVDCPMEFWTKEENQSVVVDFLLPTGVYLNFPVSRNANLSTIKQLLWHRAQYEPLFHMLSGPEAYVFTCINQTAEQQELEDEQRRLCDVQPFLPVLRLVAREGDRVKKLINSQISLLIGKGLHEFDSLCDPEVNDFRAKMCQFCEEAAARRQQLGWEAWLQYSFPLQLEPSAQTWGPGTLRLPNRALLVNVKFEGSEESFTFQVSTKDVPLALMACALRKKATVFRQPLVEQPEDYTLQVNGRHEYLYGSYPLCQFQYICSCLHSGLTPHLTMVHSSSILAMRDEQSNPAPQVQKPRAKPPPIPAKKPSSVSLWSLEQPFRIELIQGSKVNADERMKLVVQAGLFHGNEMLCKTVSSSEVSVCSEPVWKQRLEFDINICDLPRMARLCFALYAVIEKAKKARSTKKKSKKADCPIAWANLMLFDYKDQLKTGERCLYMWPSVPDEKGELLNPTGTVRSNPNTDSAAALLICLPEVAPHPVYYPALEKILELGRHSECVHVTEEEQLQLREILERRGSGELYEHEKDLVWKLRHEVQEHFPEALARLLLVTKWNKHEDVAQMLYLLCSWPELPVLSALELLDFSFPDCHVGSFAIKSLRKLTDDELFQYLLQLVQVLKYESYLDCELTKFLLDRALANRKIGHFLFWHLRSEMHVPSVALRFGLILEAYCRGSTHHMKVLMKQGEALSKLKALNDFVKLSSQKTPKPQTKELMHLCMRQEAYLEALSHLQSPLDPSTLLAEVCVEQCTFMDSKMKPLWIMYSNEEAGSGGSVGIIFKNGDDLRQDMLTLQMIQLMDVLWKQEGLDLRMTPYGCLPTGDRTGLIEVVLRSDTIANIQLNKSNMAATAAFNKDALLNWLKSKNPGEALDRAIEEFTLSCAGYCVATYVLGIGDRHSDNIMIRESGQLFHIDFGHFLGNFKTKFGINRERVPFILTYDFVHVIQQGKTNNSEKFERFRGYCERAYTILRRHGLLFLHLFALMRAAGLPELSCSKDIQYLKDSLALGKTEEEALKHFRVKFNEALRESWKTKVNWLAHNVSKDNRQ
PI3Kδ (p110δ/p85α) Recombinant Human Protein, sequence (P27986 whole entry partner): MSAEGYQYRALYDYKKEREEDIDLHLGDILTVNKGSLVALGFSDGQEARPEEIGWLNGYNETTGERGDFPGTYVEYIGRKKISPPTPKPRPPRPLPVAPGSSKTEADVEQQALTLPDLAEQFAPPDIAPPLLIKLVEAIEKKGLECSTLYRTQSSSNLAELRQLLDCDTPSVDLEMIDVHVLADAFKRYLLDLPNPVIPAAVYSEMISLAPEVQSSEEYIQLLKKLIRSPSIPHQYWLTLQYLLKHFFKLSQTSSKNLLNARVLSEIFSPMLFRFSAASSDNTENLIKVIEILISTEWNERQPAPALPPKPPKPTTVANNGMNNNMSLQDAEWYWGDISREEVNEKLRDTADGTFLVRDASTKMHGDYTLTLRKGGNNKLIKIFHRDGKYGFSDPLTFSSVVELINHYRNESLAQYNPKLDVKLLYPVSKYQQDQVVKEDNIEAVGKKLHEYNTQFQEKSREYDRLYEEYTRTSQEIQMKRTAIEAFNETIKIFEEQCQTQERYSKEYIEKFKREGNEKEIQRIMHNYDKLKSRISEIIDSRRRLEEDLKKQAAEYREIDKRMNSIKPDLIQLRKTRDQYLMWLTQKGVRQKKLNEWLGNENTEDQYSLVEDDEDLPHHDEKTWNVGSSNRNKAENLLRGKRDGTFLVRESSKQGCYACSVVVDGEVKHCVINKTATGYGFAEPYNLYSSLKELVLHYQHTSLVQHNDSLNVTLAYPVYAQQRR
PI3Kγ (p110γ) Recombinant Human Protein, sequence (P48736 whole entry): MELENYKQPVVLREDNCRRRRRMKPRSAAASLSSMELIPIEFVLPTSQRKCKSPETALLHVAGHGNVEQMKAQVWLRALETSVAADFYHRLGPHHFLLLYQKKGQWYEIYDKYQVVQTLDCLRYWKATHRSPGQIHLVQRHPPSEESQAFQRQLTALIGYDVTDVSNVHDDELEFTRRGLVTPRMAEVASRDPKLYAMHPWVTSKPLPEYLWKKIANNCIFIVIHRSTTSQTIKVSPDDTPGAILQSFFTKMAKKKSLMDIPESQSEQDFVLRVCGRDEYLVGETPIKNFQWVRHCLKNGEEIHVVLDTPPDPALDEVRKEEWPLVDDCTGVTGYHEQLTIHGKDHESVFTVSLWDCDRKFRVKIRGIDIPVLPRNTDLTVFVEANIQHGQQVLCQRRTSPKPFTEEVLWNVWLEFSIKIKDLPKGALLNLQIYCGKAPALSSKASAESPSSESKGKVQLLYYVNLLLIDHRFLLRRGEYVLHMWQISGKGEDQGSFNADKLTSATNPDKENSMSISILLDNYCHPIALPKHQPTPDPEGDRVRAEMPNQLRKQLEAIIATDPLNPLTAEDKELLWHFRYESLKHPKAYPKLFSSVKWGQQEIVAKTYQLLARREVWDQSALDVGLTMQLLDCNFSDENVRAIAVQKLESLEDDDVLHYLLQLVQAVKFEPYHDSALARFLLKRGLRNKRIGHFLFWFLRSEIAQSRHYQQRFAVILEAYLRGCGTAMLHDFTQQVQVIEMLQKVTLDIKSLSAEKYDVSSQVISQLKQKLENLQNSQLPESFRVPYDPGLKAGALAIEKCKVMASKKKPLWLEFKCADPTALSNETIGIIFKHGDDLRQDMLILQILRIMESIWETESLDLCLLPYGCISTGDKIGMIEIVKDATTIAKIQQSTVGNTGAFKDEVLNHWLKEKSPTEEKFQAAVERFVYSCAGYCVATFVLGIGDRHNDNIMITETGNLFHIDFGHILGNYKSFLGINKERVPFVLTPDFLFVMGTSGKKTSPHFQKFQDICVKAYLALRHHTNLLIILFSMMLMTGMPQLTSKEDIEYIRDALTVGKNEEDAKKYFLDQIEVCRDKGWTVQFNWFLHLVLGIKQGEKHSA

IC50 [1, 4] [nM]	IC50 [2] [nM]	IC50 [3] [nM]	IC50 ([1]; THP-1 cells) [nM]	Compound
100 to 500	< 100	< 100		Cc1cc(CNC(=O)c2cn3c(-c4cc(C(C)(O)C(F)(F)F)ccc4C)cnc3c(N)n2)on1 (stereo not drawn) [Example 22, 8-Amino-3-(2-methyl-5-(1,1,1-trifluoro-2-hydroxypropan-2-yl)phenyl)-N-((3-methylisoxazol-5-yl)methyl)imidazo[1,2-a]pyrazine-6-carboxamide, TFA]
100 to 500	< 100	100 to 500		CNC(=O)C1CC1c1cn2c(-c3cc(C(C)(O)C(F)F)ccc3C)cnc2c(N)n1 (stereo not drawn) [Example 76, 2-(8-Amino-3-(5-(1,1-difluoro-2-hydroxypropan-2-yl)-2-methylphenyl)imidazo[1,2-a]pyrazin-6-yl)-N-methylcyclopropane-1-carboxamide]
	< 100	< 100	< 100	2-(3-(8-Amino-6-(3-methyl-1H-pyrazol-4-yl)imidazo[1,2-a]pyrazin-3-yl)-4-methylphenyl)-1,1-difluoropropan-2-ol, 1.2TFA [Example 47]
< 100	< 100	< 100		[2H]C([2H])([2H])c1ccc(C(C)(O)C(F)(F)F)cc1-c1cnc2c(N)nc(-c3ccc(C(C)O)nc3)cn12 (stereo not drawn) [Example 267, 2-(3-(8-Amino-6-(6-(1-hydroxyethyl)pyridin-3-yl)imidazo[1,2-a]pyrazin-3-yl)-4-(methyl-d3)phenyl)-1,1,1-trifluoropropan-2-ol]
100 to 500	< 100	< 100		[2H]C([2H])([2H])c1ccc(C(C)(O)C(F)(F)F)cc1-c1cnc2c(N)nc(-c3cnn4c3CCC4)cn12 (stereo not drawn) [Example 87, 2-(3-(8-Amino-6-(5,6-dihydro-4H-pyrrolo[1,2-b]pyrazol-3-yl)imidazo[1,2-a]pyrazin-3-yl)-4-(methyl-d3)phenyl)-1,1,1-trifluoropropan-2-ol, trifluoroacetate]
100 to 500	< 100	100 to 500		CNC(=O)c1cn2c(-c3cc(C(C)(O)C(F)(F)F)ccc3C)cnc2c(N)n1 (stereo not drawn) [Example 9, 8-Amino-N-methyl-3-(2-methyl-5-(1,1,1-trifluoro-2-hydroxypropan-2-yl)phenyl)imidazo[1,2-a]pyrazine-6-carboxamide]
< 100	< 100	100 to 500		Cc1ccc(C(O)(C(N)=O)C(F)(F)F)cc1-c1cnc2c(N)nc(C(=O)NC34CC(F)(C3)C4)cn12 (stereo not drawn) [Example 288, 8-Amino-3-(5-(3-amino-1,1,1-trifluoro-2-hydroxy-3-oxopropan-2-yl)-2-methylphenyl)-N-(3-fluorobicyclo[1.1.1]pentan-1-yl)imidazo[1,2-a]pyrazine-6-carboxamide trifluoroacetate salt]
100 to 500	< 100	100 to 500		Cc1ccc(C(C)(O)C(F)(F)F)cc1-c1cnc2c(N)nc(C#CC3CC3)cn12 (stereo not drawn) [Example 162, 2-(3-(8-Amino-6-(cyclopropylethynyl)imidazo[1,2-a]pyrazin-3-yl)-4-methylphenyl)-1,1,1-trifluoropropan-2-ol trifluoroacetate salt]
> 1000	< 100	500 to 2000		Cc1ccc(C(C)(O)C(F)(F)C(F)(F)F)cc1-c1cnc2c(N)nc(C(F)(F)F)cn12 (single isomer, unassigned) [Example 60, 2-(3-(8-Amino-6-(trifluoromethyl)imidazo[1,2-a]pyrazin-3-yl)-4-methylphenyl)-3,3,4,4,4-pentafluorobutan-2-ol]
100 to 500	< 100	100 to 500		[2H]C([2H])([2H])c1ccc(C(C)(O)C(F)(F)F)cc1-c1cnc2c(N)nc(C(C)(C)O)cn12 (single isomer, unassigned) [Example 253, 2-(3-(8-Amino-6-(2-hydroxypropan-2-yl)imidazo[1,2-a]pyrazin-3-yl)-4-(methyl-d3)phenyl)-1,1,1-trifluoropropan-2-ol trifluoroacetate salt]
100 to 500	< 100	< 100		Cc1ccc(C(C)(O)C(F)(F)F)cc1-c1cnc2c(N)nc(-c3ccnc(CO)c3)cn12 (stereo not drawn) [Example 10, 2-(3-(8-Amino-6-(2-(hydroxymethyl)pyridin-4-yl)imidazo[1,2-a]pyrazin-3-yl)-4-methylphenyl)-1,1,1-trifluoropropan-2-ol]
100 to 500	< 100	500 to 2000		Cc1ccc(C(O)(C(N)=O)C(F)(F)F)cc1-c1cnc2c(N)nc(C(=O)NC3CCOCC3)cn12 (stereo not drawn) [Example 285, 8-Amino-3-(5-(3-amino-1,1,1-trifluoro-2-hydroxy-3-oxopropan-2-yl)-2-methylphenyl)-N-(tetrahydro-2H-pyran-4-yl)imidazo[1,2-a]pyrazine-6-carboxamide]
100 to 500	< 100	100 to 500		Cc1ccc(C(C)(O)C(F)F)cc1-c1cnc2c(N)nc(-c3cncc(S(C)(=O)=O)c3)cn12 (stereo not drawn) [Example 106, 2-(3-(8-Amino-6-(5-(methylsulfonyl)pyridin-3-yl)imidazo[1,2-a]pyrazin-3-yl)-4-methylphenyl)-1,1-difluoropropan-2-ol]
100 to 500	< 100	100 to 500		Cc1ccc(C(C)(O)C(F)F)cc1-c1cnc2c(N)nc(-c3cc(C(N)=O)ccc3F)cn12 (stereo not drawn) [Example 31, 3-(8-Amino-3-(5-(1,1-difluoro-2-hydroxypropan-2-yl)-2-methylphenyl)imidazo[1,2-a]pyrazin-6-yl)-4-fluorobenzamide]
100 to 500	< 100	100 to 500		Cc1ccc(C(C)(O)C(F)F)cc1-c1cnc2c(N)nc(C3CC3C(=O)NC(C)(C)CO)cn12 (stereo not drawn) [Example 78, 2-(8-Amino-3-(5-(1,1-difluoro-2-hydroxypropan-2-yl)-2-methylphenyl)imidazo[1,2-a]pyrazin-6-yl)-N-(1-hydroxy-2-methylpropan-2-yl)cyclopropane-1-carboxamide]
100 to 500	< 100	100 to 500		[2H]C([2H])([2H])c1ccc(C(C)(O)C(F)(F)F)cc1-c1cnc2c(N)nc(-c3cnn(C4(CC#N)CC(C(=O)OC)C4)c3)cn12 (stereo not drawn) [Example 88, Methyl 3-(4-(8-amino-3-(2-(methyl-d3)-5-(1,1,1-trifluoro-2-hydroxypropan-2-yl)phenyl)imidazo[1,2-a]pyrazin-6-yl)-1H-pyrazol-1-yl)-3-(cyanomethyl)cyclobutane-1-carboxylate, trifluoroacetate]
100 to 500	< 100	< 100		Cc1ccc(C(C)(O)C(F)(F)F)cc1-c1cnc2c(N)nc(-c3cnc(C4CC4)s3)cn12 (stereo not drawn) [Example 20, 2-(3-(8-Amino-6-(2-cyclopropylthiazol-5-yl)imidazo[1,2-a]pyrazin-3-yl)-4-methylphenyl)-1,1,1-trifluoropropan-2-ol, TFA]
< 100	< 100	< 100		Cc1ccc(C(C)(O)C(F)F)cc1-c1cnc2c(N)nc(-c3c(C)n[nH]c3C)cn12 (stereo not drawn) [Example 39, 2-(3-(8-Amino-6-(3,5-dimethyl-1H-pyrazol-4-yl)imidazo[1,2-a]pyrazin-3-yl)-4-methylphenyl)-1,1-difluoropropan-2-ol]
100 to 500	< 100	100 to 500		Cc1cc(-c2cn3c(-c4cc(C(C)(O)C(F)F)ccc4C)cnc3c(N)n2)n(C)n1 (stereo not drawn) [Example 41, 2-(3-(8-Amino-6-(1,3-dimethyl-1H-pyrazol-5-yl)imidazo[1,2-a]pyrazin-3-yl)-4-methylphenyl)-1,1-difluoropropan-2-ol]
< 100	< 100	< 100		CNC(=O)C(O)(c1ccc(C)c(-c2cnc3c(N)nc(C(F)(F)F)cn23)c1)C(F)(F)F (stereo not drawn) [Example 118, 2-(3-(8-Amino-6-(trifluoromethyl)imidazo[1,2-a]pyrazin-3-yl)-4-methylphenyl)-3,3,3-trifluoro-2-hydroxy-N-methylpropanamide]
